From US6914045B2, “Glycopeptide antibiotics” (Wyeth Holdings Corporation, priority 2001, dated 2005)
Converted amounts (≈) assume the structure as drawn.

Tests used:
Experiment in all cases: in vitro antibacterial evaluation, MIC by broth dilution
Assay type in all cases: cell-based
[1] = tested on: Escherichia coli; conditions: 18 hours at 35° C.
[2] = tested on: Enterococcus sp.; conditions: broth dilution, 18 hours at 35° C.
Method in brief: (§1)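 MIC = lowest antibiotic concentration preventing visible growth; inoculum 5×10^5 CFU/mL; drug range 64-0.06 μg/mL; Muller-Hinton II […]; NCCLS M7-A2 guidance.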

[3] = tested on: Streptococcus sp.; conditions: broth dilution, 18 hours at 35° C.
Method in brief: as §1

[4] = tested on: Staphylococcus sp.; conditions: broth dilution, 18 hours at 35° C.; for MIC Staphylococcus aureus (GC 1131): strain GC 1131
Method in brief: as §1

MIC Escherichia coli (GC 4559) [1]: 32 µg/mL (≈ 22.7 µM)
MIC Escherichia coli (GC 4560) [1]: 2 µg/mL (≈ 1.42 µM)
MIC Enterococcus avium (GC 4558) [2]: 2 µg/mL (≈ 1.42 µM)
MIC Enterococcus faecalis (ATCC 29212) [2]: 2 µg/mL (≈ 1.42 µM)
MIC Enterococcus faecalis (GC 2242) [2]: 1 µg/mL (≈ 0.708 µM)
MIC Enterococcus faecalis (GC 2691) [2]: 2 µg/mL (≈ 1.42 µM)
MIC Enterococcus faecalis (GC 3059) [2]: 1 µg/mL (≈ 0.708 µM)
MIC Enterococcus faecalis (GC 4552) [2]: 1 µg/mL (≈ 0.708 µM)
MIC Enterococcus faecalis (GC 4553) [2]: 2 µg/mL (≈ 1.42 µM)
MIC Enterococcus faecalis (GC 4554) [2]: 1 µg/mL (≈ 0.708 µM)
MIC Enterococcus faecalis (GC 6189) [2]: 0.5 µg/mL (≈ 0.354 µM)
MIC Enterococcus faecium (GC 2243) [2]: 1 µg/mL (≈ 0.708 µM)
MIC Enterococcus faecium (GC 4556) [2]: 1 µg/mL (≈ 0.708 µM)
MIC Enterococcus faecium (GC 4557) [2]: 2 µg/mL (≈ 1.42 µM)
MIC Enterococcus faecalis (ATCC 29212) ([2]; inoculum 5×10^5 CFU/mL, strain ATCC 29212): 2 µg/mL (≈ 1.42 µM)
MIC Enterococcus faecalis (GC 2242) ([2]; inoculum 5×10^5 CFU/mL, strain GC 2242): 1 µg/mL (≈ 0.708 µM)
MIC Enterococcus faecium (GC 2243) ([2]; inoculum 5×10^5 CFU/mL, strain GC 2243): 1 µg/mL (≈ 0.708 µM)
MIC Enterococcus faecalis (GC 2691) ([2]; inoculum 5×10^5 CFU/mL, strain GC 2691): 2 µg/mL (≈ 1.42 µM)
MIC Enterococcus faecalis (GC 3059) ([2]; inoculum 5×10^5 CFU/mL, strain GC 3059): 1 µg/mL (≈ 0.708 µM)
MIC Enterococcus faecalis (GC 4552) ([2]; inoculum 5×10^5 CFU/mL, strain GC 4552): 1 µg/mL (≈ 0.708 µM)
MIC Enterococcus faecalis (GC 4553) ([2]; inoculum 5×10^5 CFU/mL, strain GC 4553): 2 µg/mL (≈ 1.42 µM)
MIC Enterococcus faecalis (GC 4554) ([2]; inoculum 5×10^5 CFU/mL, strain GC 4554): 1 µg/mL (≈ 0.708 µM)
MIC Enterococcus faecium (GC 4556) ([2]; inoculum 5×10^5 CFU/mL, strain GC 4556): 1 µg/mL (≈ 0.708 µM)
MIC Enterococcus faecium (GC 4557) ([2]; inoculum 5×10^5 CFU/mL, strain GC 4557): 2 µg/mL (≈ 1.42 µM)
MIC Enterococcus avium (GC 4558) ([2]; inoculum 5×10^5 CFU/mL, strain GC 4558): 2 µg/mL (≈ 1.42 µM)
MIC Enterococcus faecalis (GC 6189) ([2]; inoculum 5×10^5 CFU/mL, strain GC 6189): 0.5 µg/mL (≈ 0.354 µM)
MIC Streptococcus agalactiae (GC 4564) [3]: <0.06 µg/mL
MIC Streptococcus pneumoniae (ATCC 6301) [3]: 0.25 µg/mL (≈ 0.177 µM)
MIC Streptococcus pneumoniae (GC 1894) [3]: 0.12 µg/mL (≈ 0.085 µM)
MIC Streptococcus pneumoniae (GC 4565) [3]: <0.06 µg/mL
MIC Streptococcus pyogenes (GC 4563) [3]: <0.06 µg/mL
MIC Streptococcus pneumoniae (ATCC 6301) ([3]; inoculum 5×10^5 CFU/mL, strain ATCC 6301): 0.25 µg/mL (≈ 0.177 µM)
MIC Streptococcus pneumoniae (GC 1894) ([3]; inoculum 5×10^5 CFU/mL, strain GC 1894): 0.12 µg/mL (≈ 0.085 µM)
MIC Streptococcus pyogenes (GC 4563) ([3]; inoculum 5×10^5 CFU/mL, strain GC 4563): <0.06 µg/mL
MIC Streptococcus agalactiae (GC 4564) ([3]; inoculum 5×10^5 CFU/mL, strain GC 4564): <0.06 µg/mL
MIC Streptococcus pneumoniae (GC 4565) ([3]; inoculum 5×10^5 CFU/mL, strain GC 4565): <0.06 µg/mL
MIC Staphylococcus aureus (GC 1131) ([4]; inoculum 5×10^5 CFU/mL): 1 µg/mL (≈ 0.708 µM)
MIC Staphylococcus aureus (ATCC 29213) ([4]; strain ATCC 29213): 0.5 µg/mL (≈ 0.354 µM)
MIC Staphylococcus aureus (GC 1131) [4]: 1 µg/mL (≈ 0.708 µM)
MIC Staphylococcus aureus (GC 3051) ([4]; strain GC 3051): 1 µg/mL (≈ 0.708 µM)
MIC Staphylococcus aureus (GC 3053) ([4]; strain GC 3053): 1 µg/mL (≈ 0.708 µM)
MIC Staphylococcus aureus (GC 4541) ([4]; strain GC 4541): 0.5 µg/mL (≈ 0.354 µM)
MIC Staphylococcus aureus (GC 4542) ([4]; strain GC 4542): 0.5 µg/mL (≈ 0.354 µM)
MIC Staphylococcus aureus-SMITH (GC 4543) ([4]; strain GC 4543): 0.5 µg/mL (≈ 0.354 µM)
MIC Staphylococcus aureus (GC 4544) ([4]; strain GC 4544): 2 µg/mL (≈ 1.42 µM)
MIC Staphylococcus aureus (GC 4545) ([4]; strain GC 4545): 1 µg/mL (≈ 0.708 µM)
MIC Coagulase Negative Staphylococcus (GC 4547) ([4]; strain GC 4547): 1 µg/mL (≈ 0.708 µM)
MIC Coagulase Negative Staphylococcus (GC 4548) ([4]; strain GC 4548): 0.5 µg/mL (≈ 0.354 µM)
MIC Coagulase Negative Staphylococcus (GC 4549) ([4]; strain GC 4549): 0.5 µg/mL (≈ 0.354 µM)
MIC Coagulase Negative Staphylococcus (GC 4551) ([4]; strain GC 4551): 1 µg/mL (≈ 0.708 µM)
MIC Coagulase Negative Staphylococcus (GC 6257) ([4]; strain GC 6257): 0.5 µg/mL (≈ 0.354 µM)
Compound: CCCC(C)C1OCC2OC(OC3C(CO)OC(Oc4ccc(CC5NC(=O)C(C(C)c6ccc(Cl)cc6)NC(=O)CNC(=O)C(CO)NC(=O)C(C(O)C6CNC(=N)N6C6OC(CO)C(O)C(O)C6O)NC(=O)C(C(O)C6CNC(=N)N6)NC5=O)cc4)C(O)C3O)C(O)C(O)C2O1 (stereo not shown) [Example 194]
MIC Staphylococcus haemolyticus (GC 4546) ([4]; strain GC 4546): 0.5 µg/mL (≈ 0.354 µM)
